Assay results as given in US11684675B2, “Dimeric collagen hybridizing peptides and methods of using” (University of Utah Research Foundation, priority 2015, dated 2023).

How the values were obtained:
[1] = system: crosslinked gelatin films; assay: Binding of CF-labelled CHPs to crosslinked gelatin films at 37° C. with and without preheating; design: species or system porcine; conditions: 20 μM, 37° C. overnight, PBS wash 20 h, FIG. 6C
Method: FIGS. 3A and 3B show the affinity of CHPs to gelatin films as monitored by fluorescence of conjugated CF fluorophore (492 ex, 533 em). (A) Fluorescence of CHPs bound to crosslinked gelatin after incubation at 37° C. overnight with no workup. (B) Fluorescence of CHPs remaining in crosslinked gelatin after incubation at 37° C. overnight without preheating, followed by washing with 1×PBS at 37° C. (20 h).
(§1) (A) Fraction of peptide remaining in a crosslinked gelatin film after 17 h at 25° C. (10 total washes). Values are normalized to fluorescence remaining in wells after 6 washes at 4° C. (>95% removal of CHPs 9r, 6r, and 5r). All washes performed in 1×PBS. (B) CHPs (15 μM) premixed into 10% porcine gelatin and preheated to 80° C. (10 min) before being added to a 96 well plate. Excess CHP-gelatin mixture was removed, then the premix was incubated at 4° C. for 2 hours. Wells were washed at 4° C., 5 times (>95% removal of CHPs 9r, 6r, and 5r). Wells were then washed for 2 hours (6 washes total) at 25° C. to monitor CHP remaining in the well. (C) Fluorescence of CHPs remaining in crosslinked gelatin after incubation at 37° C. overnight without preheating, followed by washing with 1×PBS at 37° C. (20 h). (D) Fluorescence of CHPs remaining in crosslinked gelatin after incubation at 37° C. overnight (80° C. preheating, 10 min), followed by washing with 1×PBS at 37° C. (20 h).
Dimeric CHPs were assessed for their ability to bind to collagen strands in crosslinked gelatin films. CHP solutions (20 μM in PBS) were added directly to the crosslinked gelatin films. For heated experiments, CHPs were preheated to 80° C. for 10 minutes before addition. Peptides were allowed to fully equilibrate with the gel at 37° C. overnight before being exposed to repeated washes (4×, PBS) at 37° C. to fully remove any non-specifically bound peptide and to determine binding level at body temperature. To measure retention, peptides were bound as previously described, but were subsequently washed with PBS 37° C. (5×1 h, 1×12 h) to measure retention within the gelatin films. […] Additionally, after a period of 20 hours, higher level of the dimeric CHP remained in the gelatin compared to the monomeric CHP.
A major limitation of the use of CHP in vivo, is the requirement of the triple helix to be fully disassembled before being injected. […] For this test, peptide solutions were allowed to warm to room temperature before being added (50 μL, 20 μM) to previously prepared crosslinked gelatin films. Solutions were then incubated at 37° C. overnight before removing the solution. Wells were washed at 37° C. with PBS (20 h) to determine binding. Preheated samples were prepared and incubated in the same way, but with preheating (80° C., 10 min) before being added to the crosslinked gelatin wells.

[2] = system: crosslinked gelatin films; assay: Retention of CF-labelled CHPs in crosslinked gelatin films (bound at 4° C., washed at 25° C./r.t.); assay type: binding, porcine; conditions: Example 2, washes at 4° C. then 25° C.
Method: as §1
Binding to Gelatin films. Peptide solutions (20 μM in PBS) were preheated to 80° C. for 10 minutes before being added directly to the crosslinked gelatin films. Peptides were allowed to fully equilibrate with the gel at 4° C. overnight before being exposed to repeated washes (4×30 min) at 4° to fully remove any non-specifically bound peptide. Gelatin wells were then washed at r.t. with PBS (5×1 h, lx 12 h) to measure retention within the gelatin films. […] To eliminate the possibility of these peptides merely becoming physically entrapped within the gelatin after forming triple helix or forming triple helix before binding, binding affinity was verified by producing a premix of the CHPs and Gelatin to eliminated diffusion-limited binding before washing the wells in a similar manner.
Fluorescence Binding: CHP binding to gelatin was monitored by conjugating a fluorescent Carboxyfluorescein (CF) molecule to the N-terminus of each peptide via standard SPPS. Solutions of the fluorescent peptides were heated to 80° C. for 5 min before injecting 50 μL onto a pre-prepared EDC-crosslinked thin gelatin film in a 96 well plate. Peptides incubated overnight at 4° C., then washed with repeated rounds of 4° C. 1×PBS followed by 25° C. 1×PBS.

porcine gelatin = assay: SPR gelatin capture by immobilized biotinylated CHPs; assay type: binding; conditions: gelatin 25 μg/mL
Method: FIGS. 7A and 7B show SPR data for porcine gelatin capture by immobilized CHPs. […] Gelatin was applied to the sensor surface during the association phase, followed by elution with blank during dissociation phase. Association occurred for 981 s, followed by dissociation for 1800 s. Values were normalized to a 100% biotin lane, and were adjusted to the mass of peptide immobilized in each well. (A) Preheated (80° C., 10 min), quenched (0° C., 30 s) gelatin (25 μg/mL) was applied to the sensor at an ambient temperature of 37° C. (B) Preheated (80° C., 10 min), quenched (0° C., 30 s) gelatin (25 μg/mL) was applied to the sensor at an ambient temperature of 15° C.
Surface Plasmon Resonance (SPR). […] However, there were major differences observed during the association phase. At 37° C., there was a much higher amount of gelatin adsorbed to all the peptides tested on the surface when compared to 15° C. […] At 15° C., gelatin adsorbed to the surface at a much slower rate. […] However, this lower adsorption rate can be due to a reduced diffusion rate near the surface or a more condensed gelatin structure at this lower temperature.
Dimeric CHP is able to hybridize effectively with denatured collagens with faster folding kinetics than current, monomeric CHPs. Surface plasmon resonance (SPR) was used to measure the ability of the CHPs to trap denatured collagen from solution.

binding affinity to gelatin compared to monomeric form [2]: clear increase in binding affinity
Substance: [(GPO)6G3)2KG [6d]
binding to gelatin wells at 37° C. without preheating [1]: bind more significantly than the GPO9 monomer without preheating | ability to bind gelatin (porcine gelatin; 15° C.): only able to bind gelatin at a rate comparable to the monomeric CHPs | ability to bind gelatin (porcine gelatin; 37° C.): higher ability to bind gelatin than that of an equivalent number of strands in their monomeric counterparts
